From patent US20120149708A1, “MODULATORS OF VIRAL TRANSCRIPTION, AND METHODS AND COMPOSITIONS THEREWITH” (George Mason University, priority 2010, published 2012)

Tests used:
Assay type in all cases: cell-based
[1] = tested on: HIV-1 LTR; assay: ChIP assay on HIV-1 LTR in TSA treated TZM-bl cells; details: TZM-bl after TSA treatment
Method: Primers specific for the HIV-1 LTR were used to amplify DNA that was precipitated with each antibody. Lane 1 indicates basal levels of repressive markers on the HIV-1 LTR.
TZM-bl cells were treated with TSA for 7 days and processed for ChIP. For ChIP, approximately 5×10^6 cells were used per IP. ChIP assays were performed as previously described. PCR was performed using 0.1 μM of HIV-1 LTR primers (Klase et al, 2007; Guendel et al, 2009; Easley et al, 2010).
To observe the effect of drug on heterochrmatin formation, the present inventor used a ChIP assay. Briefly, TZM-bl cells were treated with TSA (FIGS. 16 and 17), and then treated with CR8#13.

[2] = tested on: HIV-1; assay: Viral inhibition (HIV-1); details: versus Cyc202
[3] = tested on: infected ACH2, J1.1, OM10.1, U1 cells; assay: MTT assay, infected cells; details: 50 nm and 10 μM
Method: FIGS. 1 and 2 show screening results of CR8 derivatives on Tat-dependent transcription HIV-1 LTR. […] TZM-bl cells were transfected with 1 ug of Tat and treated the next day with DMSO, or the indicated CR8 derivative compounds at 50 nm. 48 hrs-post drug treatment, luciferase activity of the firefly luciferase was measured with the BrightGlo Luciferase Assay and luminescence was read from a 96 well plate on an EG&G Berthold luminometer. Assays were performed in triplicate, average and standard deviations are shown.
Quantitative MTT assays were performed (FIG. 2), to further validate the cell growth inhibitory activity of certain Formula I compounds. In this study, cultured, infected ACH2, J1.1, OM10.1, U1 and uninfected CEM, Jurkat T-cells, and U937 cells were brought in contact with Formula I compounds CR8, MRT-033, and BJFP1154 (CR8#13). Cell growth inhibition study was performed at two different concentrations of the inventive compounds, a low concentration of 50 nm, and high concentration of 10 μM.

Row | SMILES | recruitment of HDAC1, Ago2, Suv39H1 to the HIV-1 promoter (ChIP) [1] | potency relative to Cyc202 (viral inhibition) [2] | cell killing of infected cells (MTT) [3]
1 | CC(C)c1cnn2c(NCc3ccc(-c4ccccn4)cc3)nc(NC[C@H](O)CO)nc12.O=C(O)/C=C/C(=O)O [BJFP1154] | re-recruitment of heterochromatin markers | – | –
2 | CC[C@@H](CO)Nc1nc(NCc2ccc(-c3ccccn3)cc2)c2ncn(C(C)C)c2n1 [CR8] | – | roughly 25 times | significant cell killing of infected cells over uninfected cells
